US8192962B2, “Processes for detecting toxic substances” (Daikin Industries, Ltd., priority 2001, dated 2012)

Test system: Transport facilitation protein genes
Assay: DNA chip mRNA expression in yeast, transport facilitation protein genes (Table 5)
Format: cell-based, Saccharomyces cerevisiae S288C
In short: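 Measured as treated-to-untreated fluorescence ratio on a full-genome yeast DNA chip. Cells (S288C, YPD, 25° C.) were exposed in log phase for two hours to one chemical, dosed to curb growth without killing.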

## S=C([S-])NCCNC(=S)[S-].[Zn+2] [(11), zinc N,N′-ethylenebis(dithiocarbamate)]
Yeast gene YHL035C
  The level of expressed mRNA in the presence of chemical substance/The level of expressed mRNA in the absence of chemical substance: 0.9
Yeast gene YHL036W
  The level of expressed mRNA in the presence of chemical substance/The level of expressed mRNA in the absence of chemical substance: 2.3
Yeast gene YHL040C
  The level of expressed mRNA in the presence of chemical substance/The level of expressed mRNA in the absence of chemical substance: 1.7
Yeast gene YHL047C
  The level of expressed mRNA in the presence of chemical substance/The level of expressed mRNA in the absence of chemical substance: 1.0
Yeast gene YHR026W
  The level of expressed mRNA in the presence of chemical substance/The level of expressed mRNA in the absence of chemical substance: 1.4
Yeast gene YHR048W
  The level of expressed mRNA in the presence of chemical substance/The level of expressed mRNA in the absence of chemical substance: 2.0
Yeast gene YHR092C
  The level of expressed mRNA in the presence of chemical substance/The level of expressed mRNA in the absence of chemical substance: 1.5
Yeast gene YHR094C
  The level of expressed mRNA in the presence of chemical substance/The level of expressed mRNA in the absence of chemical substance: 0.6
Yeast gene YHR175W
  The level of expressed mRNA in the presence of chemical substance/The level of expressed mRNA in the absence of chemical substance: 1.1
Yeast gene YIL006W
  The level of expressed mRNA in the presence of chemical substance/The level of expressed mRNA in the absence of chemical substance: 1.0
Yeast gene YIL022W
  The level of expressed mRNA in the presence of chemical substance/The level of expressed mRNA in the absence of chemical substance: 1.0
Yeast gene YIL056W
  The level of expressed mRNA in the presence of chemical substance/The level of expressed mRNA in the absence of chemical substance: 0.7
Yeast gene YIL088C
  The level of expressed mRNA in the presence of chemical substance/The level of expressed mRNA in the absence of chemical substance: 1.8
Yeast gene YJL034W
  The level of expressed mRNA in the presence of chemical substance/The level of expressed mRNA in the absence of chemical substance: 1.3
Yeast gene YJL212C
  The level of expressed mRNA in the presence of chemical substance/The level of expressed mRNA in the absence of chemical substance: 0.9
Yeast gene YJL219W
  The level of expressed mRNA in the presence of chemical substance/The level of expressed mRNA in the absence of chemical substance: 2.3
Yeast gene YJR077C
  The level of expressed mRNA in the presence of chemical substance/The level of expressed mRNA in the absence of chemical substance: 1.6
Yeast gene YJR106W
  The level of expressed mRNA in the presence of chemical substance/The level of expressed mRNA in the absence of chemical substance: 1.6
Yeast gene YJR121W
  The level of expressed mRNA in the presence of chemical substance/The level of expressed mRNA in the absence of chemical substance: 0.9
Yeast gene YKL016C
  The level of expressed mRNA in the presence of chemical substance/The level of expressed mRNA in the absence of chemical substance: 1.3
Yeast gene YKL146W
  The level of expressed mRNA in the presence of chemical substance/The level of expressed mRNA in the absence of chemical substance: 0.9
Yeast gene YKR039W
  The level of expressed mRNA in the presence of chemical substance/The level of expressed mRNA in the absence of chemical substance: 1.9
Yeast gene YKR067W
  The level of expressed mRNA in the presence of chemical substance/The level of expressed mRNA in the absence of chemical substance: 1.3
Yeast gene YLL028W
  The level of expressed mRNA in the presence of chemical substance/The level of expressed mRNA in the absence of chemical substance: 0.7
Yeast gene YLL055W
  The level of expressed mRNA in the presence of chemical substance/The level of expressed mRNA in the absence of chemical substance: 3.6
Yeast gene YLR081W
  The level of expressed mRNA in the presence of chemical substance/The level of expressed mRNA in the absence of chemical substance: 2.6
Yeast gene YLR295C
  The level of expressed mRNA in the presence of chemical substance/The level of expressed mRNA in the absence of chemical substance: 1.3
Yeast gene YLR348C
  The level of expressed mRNA in the presence of chemical substance/The level of expressed mRNA in the absence of chemical substance: 1.3
Yeast gene YLR378C
  The level of expressed mRNA in the presence of chemical substance/The level of expressed mRNA in the absence of chemical substance: 1.0
Yeast gene YMR011W
  The level of expressed mRNA in the presence of chemical substance/The level of expressed mRNA in the absence of chemical substance: 1.5
Yeast gene YMR162C
  The level of expressed mRNA in the presence of chemical substance/The level of expressed mRNA in the absence of chemical substance: 1.7
Yeast gene YMR203W
  The level of expressed mRNA in the presence of chemical substance/The level of expressed mRNA in the absence of chemical substance: 2.3
Yeast gene YNL055C
  The level of expressed mRNA in the presence of chemical substance/The level of expressed mRNA in the absence of chemical substance: 1.9
Yeast gene YNL259C
  The level of expressed mRNA in the presence of chemical substance/The level of expressed mRNA in the absence of chemical substance: 1.6
Yeast gene YNR072W
  The level of expressed mRNA in the presence of chemical substance/The level of expressed mRNA in the absence of chemical substance: 1.4
Yeast gene YOL119C
  The level of expressed mRNA in the presence of chemical substance/The level of expressed mRNA in the absence of chemical substance: 3.4
Yeast gene YOL156W
  The level of expressed mRNA in the presence of chemical substance/The level of expressed mRNA in the absence of chemical substance: 1.1
Yeast gene YOL158C
  The level of expressed mRNA in the presence of chemical substance/The level of expressed mRNA in the absence of chemical substance: 0.7
Yeast gene YOL163W
  The level of expressed mRNA in the presence of chemical substance/The level of expressed mRNA in the absence of chemical substance: 1.6
Yeast gene YOR035C
  The level of expressed mRNA in the presence of chemical substance/The level of expressed mRNA in the absence of chemical substance: 1.0
Yeast gene YOR130C
  The level of expressed mRNA in the presence of chemical substance/The level of expressed mRNA in the absence of chemical substance: 0.6
Yeast gene YOR153W
  The level of expressed mRNA in the presence of chemical substance/The level of expressed mRNA in the absence of chemical substance: 1.0
Yeast gene YOR270C
  The level of expressed mRNA in the presence of chemical substance/The level of expressed mRNA in the absence of chemical substance: 1.5
Yeast gene YOR273C
  The level of expressed mRNA in the presence of chemical substance/The level of expressed mRNA in the absence of chemical substance: 1.5
Yeast gene YOR316C
  The level of expressed mRNA in the presence of chemical substance/The level of expressed mRNA in the absence of chemical substance: 2.4
Yeast gene YOR328W
  The level of expressed mRNA in the presence of chemical substance/The level of expressed mRNA in the absence of chemical substance: 1.1
Yeast gene YOR332W
  The level of expressed mRNA in the presence of chemical substance/The level of expressed mRNA in the absence of chemical substance: 1.5
Yeast gene YOR348C
  The level of expressed mRNA in the presence of chemical substance/The level of expressed mRNA in the absence of chemical substance: 1.1
Yeast gene YPL036W
  The level of expressed mRNA in the presence of chemical substance/The level of expressed mRNA in the absence of chemical substance: 0.8
Yeast gene YPL134C
  The level of expressed mRNA in the presence of chemical substance/The level of expressed mRNA in the absence of chemical substance: 1.7
Yeast gene YPL265W
  The level of expressed mRNA in the presence of chemical substance/The level of expressed mRNA in the absence of chemical substance: 1.8
Yeast gene YPL271W
  The level of expressed mRNA in the presence of chemical substance/The level of expressed mRNA in the absence of chemical substance: 1.7
Yeast gene YPR124W
  The level of expressed mRNA in the presence of chemical substance/The level of expressed mRNA in the absence of chemical substance: 2.0
Yeast gene YPR192W
  The level of expressed mRNA in the presence of chemical substance/The level of expressed mRNA in the absence of chemical substance: 0.7
Yeast gene YPR194C
  The level of expressed mRNA in the presence of chemical substance/The level of expressed mRNA in the absence of chemical substance: 0.7
